Assay results from patent US20140350273A1, “PEDIATRIC USES OF CABAZITAXEL” (AVENTIS PHARMA S.A., priority 2012, published 2014).
Read-outs that look alike come from different tables or passages of the source.

Tested on: human rhabdomyosarcoma RH-30
Assay type: in vivo
Settings: for Average body weight change in % per mouse at nadir / Drug death (Day of death) / Regressions Complete / Regressions Partial / Tumor free survivors at day 120 / day of nadir / ΔT/ΔC in % (day 27) / Biological interpretation: 18
Method: This efficacy may be quantified, for example, as changes in tumor volume for each treated (T) and control (C) group, which are calculated for each animal and each day by subtracting the tumor volume on the day of first treatment (staging day) from the tumor volume on the specified observation day. This allows calculating the tumor growth inhibition: ΔT/ΔC=(median delta T/median delta C)×100. Individual tumor volume changes from baseline are thereafter analyzed by a non-parametric two-way ANOVA-TYPE (with factors: group and repeated days) followed by a post-hoc contrasts analysis, with Bonferroni-Holm adjustment for multiplicity, comparing all treated groups to the control group. […] A probability less than 5% (p<0.05) was considered as significant.
Based on the National Cancer Institute (NCl) standards, a ΔT/ΔC≦40% is the minimal level required to declare activity.
The tumor doubling time (in days; Td) was estimated from the plot of the log linear growth of the control group tumors in exponential growth (100 to 1000 mm^3 range) [T. H. Corbett et al., Cancer, 40: 2660-2680 (1977); F. M. Schabel et al., Cancer Drug Development, Part B, Methods in Cancer Research, 17: 3-51, New York, Academic Press Inc. (1979)].
This efficacy may also be quantified by the number of tumor regressions observed after therapy. Individual mice reporting a tumor volume ≦50% of the Day 0 measurement for two consecutive measurements over a seven day period were considered partial responders (PR). Individual mice lacking palpable tumors (<4×4 mm^2 for two consecutive measurements over a seven day period) were classified as complete responders (CR); a CR that persisted until study completion was considered a tumor-free survivor (TFS).
The animals subjected to the experiment are subcutaneously grafted unilaterally with approximately 30 mg of a tumor fragment on day 0. The animals are implanted with a human tumor xenografted in immunocompromized mice. Several days post tumor implantation, mice are randomized according to their body weight to the different groups of treatments and controls. The animals are observed every day. […] The groups are then weighed once or twice a week until the end of the trial.
The tumors are measured 1 to 5 times a week, depending on the tumor doubling time, until the tumor reaches approximately 1,000 mm^3, or until the animal dies (if this occurs before the tumor reaches 1,000 mm^3). The animals are necropsied immediately after euthanasia or death.
The selected tumor model was a human rhabdomyosarcoma RH-30, xenografted in SCID mice [Douglass E C, et al. Cytogenet Cell Genet. 1987; 45(3-4):14855.].
Treatment solutions were prepared first by mixing 1 volume of ethanolic stock solution and 1 volume of polysorbate 80, then by adding 18 volumes of glucose 5% in water.

[1] = 3.5 mg/kg per injection (total 7.0) IV days 14
[2] = 5.6 mg/kg per injection (total 11.2) IV days 14
[3] = 5.6 mg/kg per injection (total 11.2) IV days 14, listed as CABAZITAXEL
[4] = 9.0 mg/kg per injection (total 18) IV days 14
[5] = 14.5 mg/kg per injection (total 29) IV days 14
[6] = 14.5 mg/kg per injection (total 29) IV days 14, listed as CABAZITAXEL

## CO[C@H]1C(=O)[C@]2(C)[C@@H](OC)C[C@H]3OC[C@@]3(OC(C)=O)[C@H]2[C@H](OC(=O)c2ccccc2)[C@]2(O)C[C@H](OC(=O)[C@H](O)[C@@H](NC(=O)OC(C)(C)C)c3ccccc3)C(C)=C1C2(C)C [Cabazitaxel, 4α-acetoxy-2α-benzoyloxy-5β,20-epoxy-1β-hydroxy-7β,10β-dimethoxy-9-oxo-11-taxen-13α-yl (2R,3S)-3-tert-butoxycarbonyl-amino-2-hydroxy-3-phenylpropionate]
[1]
  Average body weight change in % per mouse at nadir: −10.1%
  Drug death (Day of death): 0/6
  Regressions Complete: 0/6
  Regressions Partial: 0/6
  Tumor free survivors at day 120: 0/6
  day of nadir: (24) day
  ΔT/ΔC in % (day 27): 24%
3.5 mg/kg per injection (total 7.0) IV days 14, listed as CABAZITAXEL
  Biological interpretation: Active
3.5 mg/kg per injection (total 7.0) IV days 14, listed as cabazitaxel
  Biological interpretation: active
3.5 mg/kg, day 18
  Tumor volume changes from baseline: Median (nMad): 307 (35.6)
3.5 mg/kg, day 22
  Tumor volume changes from baseline: Median (nMad): 418 (258)
3.5 mg/kg, day 29
  Tumor volume changes from baseline: Median (nMad): 356.5
[2]
  Average body weight change in % per mouse at nadir: −15.3%
  Drug death (Day of death): 0/6
  Regressions Complete: 2/6
  Regressions Partial: 5/6
  Tumor free survivors at day 120: 0/6
  day of nadir: (28) day
[3]
  Biological interpretation: Highly
  ΔT/ΔC in % (day 27): 0%
5.6 mg/kg per injection (total 11.2) IV days 14, listed as cabazitaxel
  Biological interpretation: highly active
5.6 mg/kg, day 18
  Tumor volume changes from baseline: Median (nMad): 164 (30.4)
5.6 mg/kg, day 19
  Tumor volume changes from baseline: Median (nMad): 203 (80.1)
5.6 mg/kg, day 20
  Tumor volume changes from baseline: Median (nMad): 302.5
5.6 mg/kg, day 22
  Tumor volume changes from baseline: Median (nMad): 192.5
5.6 mg/kg, day 27
  Tumor volume changes from baseline: Median (nMad): 0 (130.5)
5.6 mg/kg, day 29
  Tumor volume changes from baseline: Median (nMad): 106 (147.5)
5.6 mg/kg, day 33
  Tumor volume changes from baseline: Median (nMad): −85 (117.1)
5.6 mg/kg, day 39
  Tumor volume changes from baseline: Median (nMad): −139 (113.4)
5.6 mg/kg, day 41
  Tumor volume changes from baseline: Median (nMad): −157 (113.4)
5.6 mg/kg, day 43
  Tumor volume changes from baseline: Median (nMad): −104.5
5.6 mg/kg, day 35
  Tumor volume changes from baseline: Median (nMad): −120 (98.6)
[4]
  Average body weight change in % per mouse at nadir: −8.0%
  Biological interpretation: very active
  Drug death (Day of death): 0/6
  Regressions Complete: 6/6
  Regressions Partial: 6/6
  Tumor free survivors at day 120: 5/6
  day of nadir: (25) day
  ΔT/ΔC in % (day 27): 7%
9.0 mg/kg per injection (total 18) IV days 14, listed as CABAZITAXEL
  Biological interpretation: Very
9 mg/kg, day 18
  Tumor volume changes from baseline: Median (nMad): 138.5
9 mg/kg, day 29
  Tumor volume changes from baseline: Median (nMad): 62.5 (91.9)
9 mg/kg, day 33
  Tumor volume changes from baseline: Median (nMad): −129 (142.3)
9 mg/kg, day 39
  Tumor volume changes from baseline: Median (nMad): −189.5
9 mg/kg, day 41
  Tumor volume changes from baseline: Median (nMad): −189.5
9 mg/kg, day 43
  Tumor volume changes from baseline: Median (nMad): −189.5
9 mg/kg, day 35
  Tumor volume changes from baseline: Median (nMad): −180 (94.9)
[5]
  Average body weight change in % per mouse at nadir: −15.0%
  Drug death (Day of death): 0/6
  Regressions Complete: 6/6
  Regressions Partial: 6/6
  Tumor free survivors at day 120: 6/6
  day of nadir: (24) day
[6]
  Biological interpretation: Highly
  ΔT/ΔC in % (day 27): <0%
14.5 mg/kg per injection (total 29) IV days 14, listed as cabazitaxel
  Biological interpretation: highly active
14.5 mg/kg, day 29
  Tumor volume changes from baseline: Median (nMad): −107 (150.5)
14.5 mg/kg, day 33
  Tumor volume changes from baseline: Median (nMad): −180 (66)
14.5 mg/kg, day 46
  Tumor volume changes from baseline: Median (nMad): −194 (74.1)
14.5 mg/kg, day 50
  Tumor volume changes from baseline: Median (nMad): −194 (74.1)
14.5 mg/kg, day 35
  Tumor volume changes from baseline: Median (nMad): −194 (74.1)
14.5 mg/kg, day 39
  Tumor volume changes from baseline: Median (nMad): −194 (74.1)
14.5 mg/kg, day 41
  Tumor volume changes from baseline: Median (nMad): −194 (74.1)
14.5 mg/kg, day 43
  Tumor volume changes from baseline: Median (nMad): −194 (74.1)
Conclusion of example 1
  antitumor activity compared with docetaxel: more active than docetaxel
